Data from patent publication US20230146395A1, “Substituted Pyrimidines and Uses Thereof” (Verge Analytics, Inc., priority 2020, published 2023).
pEC50, pIC50: −log10 of the molar value.

Tests used:
[1] = target: T1, Full length human recombinant PIKFYVE (Homo sapiens, UniProt Q9Y2I7); assay: Inhibition of PIKfyve (microfluidic electrophoresis kinase assay, PI3P/PS substrate); format: biochemical; conditions: 12 concentrations
T1 construct: Full length human recombinant PIKFYVE; purchased Carna Biosciences (Kobe, Japan); host or cells: baculovirus expression system
T1 sequence (Q9Y2I7 whole entry): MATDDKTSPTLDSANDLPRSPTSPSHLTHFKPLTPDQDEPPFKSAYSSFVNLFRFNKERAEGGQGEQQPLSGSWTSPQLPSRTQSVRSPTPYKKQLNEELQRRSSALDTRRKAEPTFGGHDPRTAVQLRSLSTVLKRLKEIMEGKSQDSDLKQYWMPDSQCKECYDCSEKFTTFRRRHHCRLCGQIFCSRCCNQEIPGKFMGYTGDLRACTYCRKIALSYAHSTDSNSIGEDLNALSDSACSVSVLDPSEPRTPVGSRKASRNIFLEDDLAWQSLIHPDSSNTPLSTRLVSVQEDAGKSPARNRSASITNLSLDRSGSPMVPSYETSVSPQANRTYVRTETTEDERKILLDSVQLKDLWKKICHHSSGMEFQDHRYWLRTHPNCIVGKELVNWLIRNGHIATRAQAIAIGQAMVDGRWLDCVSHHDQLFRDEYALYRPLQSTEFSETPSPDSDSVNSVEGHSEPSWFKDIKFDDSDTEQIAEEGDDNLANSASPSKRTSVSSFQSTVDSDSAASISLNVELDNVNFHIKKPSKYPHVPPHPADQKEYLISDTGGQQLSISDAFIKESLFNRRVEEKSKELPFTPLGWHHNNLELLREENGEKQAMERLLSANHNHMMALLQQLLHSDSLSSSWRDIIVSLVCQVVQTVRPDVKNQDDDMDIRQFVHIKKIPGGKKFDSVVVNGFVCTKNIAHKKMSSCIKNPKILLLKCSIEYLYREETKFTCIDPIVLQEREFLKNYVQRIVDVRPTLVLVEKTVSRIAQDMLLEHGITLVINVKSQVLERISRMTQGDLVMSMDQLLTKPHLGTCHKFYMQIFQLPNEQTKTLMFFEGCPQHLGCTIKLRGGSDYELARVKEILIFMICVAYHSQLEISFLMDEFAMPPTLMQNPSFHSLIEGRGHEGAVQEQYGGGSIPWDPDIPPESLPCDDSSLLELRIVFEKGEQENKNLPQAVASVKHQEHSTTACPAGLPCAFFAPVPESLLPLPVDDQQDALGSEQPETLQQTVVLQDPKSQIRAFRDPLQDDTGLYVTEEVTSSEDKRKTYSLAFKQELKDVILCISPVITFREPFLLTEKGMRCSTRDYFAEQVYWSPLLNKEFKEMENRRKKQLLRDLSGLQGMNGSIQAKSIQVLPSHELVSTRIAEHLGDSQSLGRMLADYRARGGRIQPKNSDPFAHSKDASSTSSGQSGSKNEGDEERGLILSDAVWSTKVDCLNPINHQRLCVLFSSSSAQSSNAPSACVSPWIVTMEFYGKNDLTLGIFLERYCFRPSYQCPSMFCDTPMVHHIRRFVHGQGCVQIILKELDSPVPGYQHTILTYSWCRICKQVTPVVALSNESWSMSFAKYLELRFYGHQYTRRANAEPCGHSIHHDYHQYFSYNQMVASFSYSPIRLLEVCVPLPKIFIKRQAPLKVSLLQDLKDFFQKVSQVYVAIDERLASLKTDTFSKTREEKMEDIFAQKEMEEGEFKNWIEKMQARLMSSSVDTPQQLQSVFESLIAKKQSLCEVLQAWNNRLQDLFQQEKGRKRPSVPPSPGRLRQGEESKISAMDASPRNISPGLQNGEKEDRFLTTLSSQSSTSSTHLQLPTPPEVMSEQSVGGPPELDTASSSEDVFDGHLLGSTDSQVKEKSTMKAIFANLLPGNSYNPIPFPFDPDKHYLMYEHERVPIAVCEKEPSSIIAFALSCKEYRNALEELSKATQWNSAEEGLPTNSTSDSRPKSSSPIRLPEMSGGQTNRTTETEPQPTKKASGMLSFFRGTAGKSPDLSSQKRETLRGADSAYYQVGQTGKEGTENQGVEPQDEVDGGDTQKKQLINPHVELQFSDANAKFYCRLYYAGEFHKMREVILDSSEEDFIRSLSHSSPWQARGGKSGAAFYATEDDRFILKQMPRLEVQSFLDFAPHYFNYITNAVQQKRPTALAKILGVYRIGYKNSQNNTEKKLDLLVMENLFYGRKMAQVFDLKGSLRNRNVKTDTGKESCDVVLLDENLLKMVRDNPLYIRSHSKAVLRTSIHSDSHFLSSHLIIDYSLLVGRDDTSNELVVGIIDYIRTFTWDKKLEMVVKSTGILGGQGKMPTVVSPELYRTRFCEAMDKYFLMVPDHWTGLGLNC
How it was run: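 Percent inhibition, from 12 concentrations, was derived from the product/(substrate+product) peak ratio separated by microfluidic electrophoresis, normalized to DMSO-only and enzyme-free controls. Reactions ran 3 h at room temperature: 2 nM N-terminal GST-PIKFYVE, 1 μM fluorescent PI3P in PS vesicles, […], HEPES pH 7.5, MgCl2/MnCl2.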

[2] = test system: HEK 293T transfected with plasmids containing TDP-43 Q331K mutation; assay: HEK/TDP Survival assay (Cell-Titer-Glo, 48 hrs, maximal effect of rescue); format: cell-based; conditions: Homo sapiens, HEK 293T with TDP-43 Q331K, (n) in brackets
Procedure: HEK/TDP Survival assay: Immortalized human embryonic kidney 293T (HEK 293T) were transfected with plasmids containing TDP-43 Q331K mutation, resulting in an increase in cell death that is biologically relevant to ALS patients. Cell death is measured as reductions in the amount of ATP, an indicator of metabolically active cells, that is quantified by a luminescence Cell-Titer-Glo® (CTG) reagent. Compounds are evaluated in this model for changes in CTG compared to a no treatment group. Increased signal indicates improved survival (rescue) and decreased signal indicates decreased survival.
Cell rescue was measured in a 96-well format with eight different concentrations of the test compound over 48 hours (hrs) with 6 replicates. The Promega Cell-Titer-Glo® Luminescent Cell Viability Assay was used to quantify ATP, an indicator of metabolically active cells (see protocol: https://www.promega.com/-/media/files/resources/protocols/technical-manuals/101/celltiterglo-2-0-assay-protocol.pdf?la=en). The luminescence signal was detected using the PerkinElmer EnVision or Molecular Devices SpectraMax.
The effect of a compound at a given dose on cell viability was determined using a three step procedure. First, Hedge's g for the Cell Titer-Glo luminescence values using six untreated wells on every plate as a control was calculated. […] Finally, values from all compound-dose pairs were corrected for multiple hypothesis testing using the Empirical Bayes framework of Stephens, M. (False discovery rates: a new deal, Biostatistics, 18 [2], 2017, 275-294) yielding credible intervals for the measured effect and associated s values.
Briefly, this method computes a local false sign rate for each experiment. Analogous to the local false discovery rate of Efron, B. (Size, power and false discovery rates, Ann. Statist. 35 [4], 2007, 1351-1377) this value measures the confidence in the sign of each effect (rather than confidence in each effect being non-zero). The s values reported in the previous figures are the expected fraction of errors if estimating the sign of all effects with greater absolute local false sign rate, defined in analogy to the q value of Storey, JD (The positive false discovery rate: a Bayesian interpretation and the q-value, Ann. Statist. 31 [6] 2003, 2013-2035).
Drugs that yielded signed log s values greater than 3 were considered hits. This threshold was determined by a separate calibration experiment in which Cell Titer-Glo® was measured in blank plates consisting of untreated cells to assess the noise inherent in the assay. Data are presented as the maximal effect of rescue obtained from the dose-response curve.

[3] = test system: ALS patient (SOD1 A4V) iPSC derived motor neurons; assay: iPSC MN Survival assay (GFP imaging, six days, hazard ratio from Cox regression); format: cell-based; conditions: Homo sapiens, survival rescue, read-out: C9 iPSC MN Significant survival rescue EC50
PI3Kα = target: T2, PI3Kα (Homo sapiens, UniProt P42336); assay: Inhibition of PI3K isoforms: PI3Kα (microfluidic electrophoresis kinase assay, PIP2/PS substrate); format: biochemical; conditions: p110α/p85α, ATP 90 μM; read-out: PI3Ka IC50
T2 construct: Full-length N-terminal; FLAG (N); host or cells: SF9 cells (baculovirus)
T2 sequence (P42336 whole entry, canonical isoform): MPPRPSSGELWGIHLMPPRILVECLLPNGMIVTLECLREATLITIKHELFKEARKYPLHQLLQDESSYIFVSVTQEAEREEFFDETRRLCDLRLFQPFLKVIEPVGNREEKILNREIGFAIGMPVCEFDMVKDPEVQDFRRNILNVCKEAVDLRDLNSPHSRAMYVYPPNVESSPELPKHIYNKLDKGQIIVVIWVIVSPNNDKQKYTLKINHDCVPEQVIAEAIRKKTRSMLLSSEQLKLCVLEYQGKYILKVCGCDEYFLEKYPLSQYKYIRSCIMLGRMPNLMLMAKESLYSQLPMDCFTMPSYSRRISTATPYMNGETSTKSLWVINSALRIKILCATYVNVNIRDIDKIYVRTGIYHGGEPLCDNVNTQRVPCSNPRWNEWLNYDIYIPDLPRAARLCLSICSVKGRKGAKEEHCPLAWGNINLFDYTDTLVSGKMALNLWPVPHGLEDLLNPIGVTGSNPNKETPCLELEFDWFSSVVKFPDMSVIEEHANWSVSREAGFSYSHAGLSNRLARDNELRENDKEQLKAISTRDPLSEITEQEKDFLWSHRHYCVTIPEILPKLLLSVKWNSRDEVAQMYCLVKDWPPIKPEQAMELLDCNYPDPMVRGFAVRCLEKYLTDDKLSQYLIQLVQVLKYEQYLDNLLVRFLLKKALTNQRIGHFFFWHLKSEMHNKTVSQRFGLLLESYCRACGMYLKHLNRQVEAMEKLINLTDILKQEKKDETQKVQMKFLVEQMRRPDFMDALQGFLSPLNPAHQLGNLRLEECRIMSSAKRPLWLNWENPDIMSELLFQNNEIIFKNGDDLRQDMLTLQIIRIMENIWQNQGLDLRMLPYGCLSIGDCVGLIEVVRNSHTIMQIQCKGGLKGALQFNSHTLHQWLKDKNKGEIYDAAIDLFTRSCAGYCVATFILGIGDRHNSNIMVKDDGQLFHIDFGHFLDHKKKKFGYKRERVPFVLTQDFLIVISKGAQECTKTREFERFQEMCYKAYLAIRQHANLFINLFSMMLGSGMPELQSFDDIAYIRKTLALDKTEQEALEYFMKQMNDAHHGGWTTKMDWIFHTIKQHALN
T2 sequence (P27986 whole entry partner, canonical isoform): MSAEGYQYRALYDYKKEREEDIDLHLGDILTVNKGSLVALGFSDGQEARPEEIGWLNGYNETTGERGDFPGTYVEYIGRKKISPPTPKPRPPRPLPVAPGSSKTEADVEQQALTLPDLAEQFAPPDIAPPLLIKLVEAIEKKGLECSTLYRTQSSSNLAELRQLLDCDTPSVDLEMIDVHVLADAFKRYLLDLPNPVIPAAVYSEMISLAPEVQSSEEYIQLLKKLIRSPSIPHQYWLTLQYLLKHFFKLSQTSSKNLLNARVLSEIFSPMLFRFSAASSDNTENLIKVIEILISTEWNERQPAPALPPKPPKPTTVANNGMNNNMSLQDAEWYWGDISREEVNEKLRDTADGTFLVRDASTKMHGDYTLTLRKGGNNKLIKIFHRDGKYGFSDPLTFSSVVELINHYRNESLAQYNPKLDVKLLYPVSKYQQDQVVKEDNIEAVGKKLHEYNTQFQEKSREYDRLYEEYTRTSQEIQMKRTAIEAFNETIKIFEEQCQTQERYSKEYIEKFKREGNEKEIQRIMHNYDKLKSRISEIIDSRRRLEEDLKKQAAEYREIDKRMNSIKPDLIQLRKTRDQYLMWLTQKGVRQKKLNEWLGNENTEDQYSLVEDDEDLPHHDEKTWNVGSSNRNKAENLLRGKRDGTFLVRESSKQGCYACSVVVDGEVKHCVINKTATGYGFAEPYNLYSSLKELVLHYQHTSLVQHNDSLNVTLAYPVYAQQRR
Procedure: The kinase substrate was prepared by mixing and sonicating fluorescently-labeled phosphatidylinositol 4,5-phosphate (PIP2) with phospho-L-serine (PS) at 1:20 ratio in 50 mM HEPES buffer pH7.5.
The kinase reactions were assembled in 384-well plates (Greiner) in a total volume of […] as follows. The kinase proteins were pre-diluted in an assay buffer comprising 50 mM HEPES, pH 7.5, 0.012% CHAPS, 1 mM DTT, 10 mM Na3VaO4, 10 mM 3-GP, 3 mM MgCl2, and 40 mM NaCl2, and dispensed into a 384-well plate (10 μL per well). Test compounds were serially pre-diluted in DMSO and added to the protein samples by acoustic dispensing (Labcyte Echo). The concentration of DMSO was equalized to 1% in all samples. All test compounds were tested at 12 concentrations. The control samples (0%-inhibition in the absence of inhibitor, DMSO only) and 100%-inhibition (in the absence of enzyme) were assembled in replicates of four and were used to calculate %-inhibition in the presence of test compounds. The reactions were initiated by addition of 10 μL of the PIP2/PS substrate supplemented with ATP. The final concentration of enzymes was 0.5 nM (PI3Kα), 1 nM (PI3Kβ), 10 nM (PI3Kγ), and 0.25 nM (PI3Kδ). The final concentration of ATP was 90 μM (PI3Kα), 60 μM (PI3Kβ), 100 μM (PI3Kγ), and 90 μM (PI3Kδ). The final concentration of PIP2/PS substrate was 1 μM (PIP2). The kinase reactions were allowed to proceed for 3 h at room temperature. Following incubation, the reactions were quenched by addition of 50 μL of termination buffer (100 mM HEPES, pH 7.5, 0.01% Triton X-100, 20 mM EDTA). Terminated plates were analyzed on a microfluidic electrophoresis instrument (Caliper LabChip® 3000, Caliper Life Sciences/Perkin Elmer). The change in the relative fluorescence intensity of the PI(4,5)P substrate and PI(3,4,5)P product peaks was measured. The activity in each test sample was determined as the product to sum ratio (PSR): P/(S+P), where P is the peak height of the product, and S is the peak height of the substrate. Percent inhibition (Pinh) was determined using the following equation:
Pinh=(PSR0% inh−PSRcompound)/(PSR0% inh−PSR100% inh)*100
in which PSRcompound is the product/sum ratio in the presence of compound, PSR0% inh is the product/sum ratio in the absence of compound, and the PSR100% inh is the product/sum ratio in the absence of the enzyme.

| SMILES | pIC50 [1] | EC50 [2] | pEC50 [3] | pIC50 (PI3Kα) |
| --- | --- | --- | --- | --- |
| Cc1cccc(-c2cc(Nc3nc(N4CCOCC4)c4oc(-c5ccncc5)cc4n3)[nH]n2)c1 [Compound 3, 4-morpholino-N-[5-(m-tolyl)-1H-pyrazol-3-yl]-6-(4-pyridyl)furo[3,2-d]pyrimidin-2-amine, hydrogen chloride] | 9.10 | 16 nM | 5.52 |  |
| CCNC(=O)c1cc2nc(-n3cc(-c4cccc(C)c4)cn3)nc(N3CCOCC3)c2o1 [Compound 101, N-ethyl-4-morpholino-2-(4-(m-tolyl)-1H-pyrazol-1-yl)furo[3,2-d]pyrimidine-6-carboxamide] | 8.54 |  | 6.00 |  |
| CCc1cc(Nc2nc(N3CCOCC3)c3oc(C(=O)NC)cc3n2)[nH]n1 [Compound 87, 2-((5-ethyl-1H-pyrazol-3-yl)amino)-N-methyl-4-morpholinofuro[3,2-d]pyrimidine-6-carboxamide, hydrogen chloride] | ≤ 4.70 |  |  | 5.46 |
| Cc1cccc(-c2cnn(-c3nc(N4CCOCC4)c4oc(-c5ccncn5)cc4n3)c2)c1 [Compound 143, 4-morpholino-6-(pyrimidin-4-yl)-2-(4-(m-tolyl)-1H-pyrazol-1-yl)furo[3,2-d]pyrimidine] | 7.60 | 48 nM | 6.00 |  |
| Cc1cccc(-c2ccn(-c3nc(N4CCOCC4)c4oc(-c5ccccn5)cc4n3)n2)c1 [Compound 91, 4-morpholino-6-(pyridin-2-yl)-2-(3-(m-tolyl)-1H-pyrazol-1-yl)furo[3,2-d]pyrimidine] | 8.41 | 24.5 nM | 6.00 |  |
| Cc1cccc(-c2cnn(-c3nc(N4CCOCC4)c4oc(C(=O)NC5CC5)cc4n3)c2)c1 [Compound 100, N-cyclopropyl-4-morpholino-2-(4-(m-tolyl)-1H-pyrazol-1-yl)furo[3,2-d]pyrimidine-6-carboxamide] | 8.92 | 18 nM | 6.52 |  |
| Cc1cccc(-c2cnn(-c3nc(N4CCOCC4)c4oc(-c5cccnc5)cc4n3)c2)c1 [Compound 102, 4-morpholino-6-(pyridin-3-yl)-2-(4-(m-tolyl)-1H-pyrazol-1-yl)furo[3,2-d]pyrimidine] | 7.92 | 43 nM | 6.00 |  |
| CNC(=O)c1cc2nc(Nc3cc(C4CCCC4)n[nH]3)nc(N3CCOCC3)c2o1 [Compound 83, 2-((5-cyclopentyl-1H-pyrazol-3-yl)amino)-N-methyl-4-morpholinofuro[3,2-d]pyrimidine-6-carboxamide, hydrogen chloride] | 5.39 |  |  | 5.43 |
| Cc1cccc(-c2cnn(-c3nc(N4CCOCC4)c4oc(-c5ccccn5)cc4n3)c2)c1 [Compound 103, 4-morpholino-6-(pyridin-2-yl)-2-(4-(m-tolyl)-1H-pyrazol-1-yl)fur[3,2-d]pyrimidine] | 7.95 |  | 6.00 |  |
| CCNC(=O)c1cc2nc(Nc3cc(-c4ccccc4)[nH]n3)nc(N3CCOCC3)c2o1 [Compound 56, N-ethyl-4 morpholino-2-[(5-phenyl-1H-pyrazol-3-yl)amino]furo[3,2-d]pyrimidine-6-carboxamide, hydrogen chloride] | 8.70 | 15 nM | 6.00 |  |
| Cc1cccc(-c2cnn(-c3nc(N4CCOCC4)c4oc(C(=O)NCC5COC5)cc4n3)c2)c1 [Compound 107, 4-morpholino-N-(oxetan-3-ylmethyl)-2-(4-(m-tolyl)-1H-pyrazol-1-yl)furo[3,2-d]pyrimidine-6-carboxamide] | 8.72 | 59.5 nM | 6.00 |  |
| Cc1cccc(-c2cnn(-c3nc(N4CCOCC4)c4oc(C(=O)NC5CCCN(C)C5)cc4n3)c2)c1 (stereo not drawn) [Compound 123, N-(1-methylpiperidin-3-yl)-4-morpholino-2-(4-(m-tolyl)-1H-pyrazol-1-yl)furo[3,2-d]pyrimidine-6-carboxamide] | 8.48 | 28.5 nM |  |  |
| Cc1cccc(-c2cnn(-c3nc(N4CCOCC4)c4oc(C(=O)NC5CC5)c(C)c4n3)c2)c1 [Compound 127, N-cyclopropyl-7-methyl-4-morpholino-2-(4-(m-tolyl)-1H-pyrazol-1-yl)furo[3,2-d]pyrimidine-6-carboxamide] | 7.47 | 48 nM |  |  |
| Cc1cccc(-c2cnn(-c3nc(N4CCOCC4)c4oc(C(=O)NC5COC5)cc4n3)c2)c1 [Compound 106, 4-morpholino-N-(oxetan-3-yl)-2-(4-(m-tolyl)-1H-pyrazol-1-yl)furo[3,2-d]pyrimidine-6-carboxamide] | 7.99 | 53.5 nM | 6.00 |  |
